Laboratory results from the OPERA property sets (Mansouri et al. 2018).

Conditions: for log10 BCF / log10 biotransformation half-life (days): fish

| Structure (SMILES) | melting point | boiling point | further results |
| --- | --- | --- | --- |
| O=C1C(Cl)=C(Cl)C(=O)c2ccccc21 | 195 °C |  | log10 Koc (L/kg): 3.98; log10 vapour pressure (mmHg): -5.96; ready biodegradability: not readily biodegradable |
| CCOC(=O)c1cccc(Cl)c1O | 21 °C | 270 °C |  |
| Sc1cccc(Cl)c1 |  | 206 °C |  |
| O=C1CCCCCCCC1 | 34 °C |  |  |
| C=CCNC |  | 65 °C |  |
| Cc1cc(N)ccc1O | 176 °C |  |  |
| CCCCc1c(C)nc(NCC)nc1O | 160 °C |  | log10 vapour pressure (mmHg): -5.7 |
| Cc1cccc(C(C)C)c1 | -63.7 °C | 175 °C | log10 vapour pressure (mmHg): 0.235; ready biodegradability: not readily biodegradable; log10 BCF: 2.73; log10 biotransformation half-life (days): 0.07 |
| C=CC(=O)OCCN(CC)CC | -60 °C |  |  |
| NC=O | 2.55 °C | 220 °C | log10 vapour pressure (mmHg): -1.21; ready biodegradability: readily biodegradable |
| Fc1cc(F)nc(F)n1 |  | 98 °C |  |
| Cc1ccc(Br)cc1 | 28.5 °C | 184 °C | log10 Henry constant (atm·m³/mol): -2.63; log10 vapour pressure (mmHg): 0.0607 |
| CCN(C(=O)n1nnn(-c2ccccc2Cl)c1=O)C1CCCCC1 | 79 °C |  | log10 vapour pressure (mmHg): -9.43 |
| Oc1cc(O)cc(-c2cc(O)cc(O)c2)c1 | 310 °C |  |  |
| CCOC(=O)NNC(=O)OCC | 135 °C |  |  |
| O=C(Nc1ccc(Cl)cc1C(O)c1ccccc1)c1ccncc1 (stereo not drawn) | 211 °C |  |  |
| CC(C)C1=CC(=O)C(C)CC1 (stereo not drawn) |  | 236 °C |  |
| CC1CC(C)(C)CCC1=O (stereo not drawn) |  | 191 °C |  |
| CCOC(=O)C(OCC)OCC |  | 199 °C |  |
| Cc1cccc(Nc2ccccc2)c1 | 30 °C | 316 °C | log10 vapour pressure (mmHg): -3.83 |
| CC(C)(CO)CO | 130 °C | 208 °C | ready biodegradability: not readily biodegradable; log10 BCF: 0.67 |
| CC(C)c1cccs1 |  | 153 °C |  |
| O=C(O)c1cc(F)c(F)cc1F | 100 °C |  |  |
| CCN(CCO)c1ccc(/N=N/c2ccc([N+](=O)[O-])cc2Cl)cc1 | 133 °C |  |  |

| Structure (SMILES) | melting point | boiling point | further results |
| --- | --- | --- | --- |
| CCC1CCC(C)CC1 (stereo not drawn) | -80.8 °C | 151 °C |  |
| Cc1ccc(Cl)cc1N | 26 °C | 239 °C |  |
| CCC#CCCCC | -104 °C | 133 °C |  |
| O=C(O)C(Cl)Br (racemic) | 31.5 °C | 215 °C |  |
| CCCCC(N)=O | 106 °C | 225 °C |  |
| CCCCC(CC)COC(=O)c1ccc(C(=O)OCC(CC)CCCC)c(C(=O)OCC(CC)CCCC)c1 (stereo not drawn) |  | 414 °C | ready biodegradability: not readily biodegradable; log10 BCF: 1.17 |
| CC=CC=CCO | 30.5 °C |  |  |
| Clc1ccccc1I | 0.7 °C | 234 °C |  |
| COc1ccc(C2C(=O)c3ccccc3C2=O)cc1 | 156 °C |  |  |
| CC(Cl)(Cl)CCl |  | 124 °C |  |
| CC1=CC=CC1 |  | 72.8 °C | log10 vapour pressure (mmHg): 2.09 |
| CCC(C)(CC)CC(C)C |  | 161 °C |  |
| O=C(CN1CCN(Cc2ccc3c(c2)OCO3)CC1)N1c2ccccc2Sc2ccccc21 | 142 °C |  |  |
| Nc1ccccc1Br | 32 °C | 229 °C |  |
| O=C(NC(=O)c1c(F)cccc1F)Nc1ccc(OC(F)(F)C(F)OC(F)(F)F)c(Cl)c1 (stereo not drawn) | 178 °C |  |  |
| CCCCC(CC)COC(=O)CCCCCCCCC(=O)OCC(CC)CCCC (stereo not drawn) | -48 °C |  |  |
| C=Cc1cccc(CC)c1 | -101 °C | 190 °C | log10 vapour pressure (mmHg): -0.0947; ready biodegradability: not readily biodegradable |
| CC(=O)[O-].[K+] | 292 °C |  |  |
| COc1ccc(OC)cc1 | 59 °C | 213 °C | ready biodegradability: readily biodegradable |
| Cc1cc(Cl)ccc1O | 51 °C | 209 °C | log10 vapour pressure (mmHg): -1.62; ready biodegradability: not readily biodegradable; log10 BCF: 1.33; log10 biotransformation half-life (days): -0.83 |
| c1ccc(-c2ccc3ncccc3c2)cc1 | 110 °C |  |  |
| O=[N+]([O-])c1cc(F)cc(F)c1 | 17 °C | 176 °C |  |
| C=CCN=C=O |  | 88 °C |  |
| CCCCCCCCCCCCCCCCCC(=O)Nc1ccc(O)cc1 | 134 °C |  |  |

| Structure (SMILES) | melting point | boiling point | further results |
| --- | --- | --- | --- |
| c1ccc2ncncc2c1 | 48 °C | 241 °C |  |
| O=C1CCC(=O)N1 | 126 °C | 288 °C | log10 vapour pressure (mmHg): -4.12 |
| CCCCC(C)S (stereo not drawn) | -147 °C | 142 °C |  |
| Cc1ccc(N)c(N)c1 | 89.5 °C | 265 °C | log10 vapour pressure (mmHg): -3.2 |
| C=C(C)c1ccc(O)cc1 |  |  | ready biodegradability: not readily biodegradable |
| C=C(Br)c1ccccc1 | -44 °C |  | ready biodegradability: not readily biodegradable |
| Cc1ccc(S(=O)(=O)N(Cl)Cl)cc1 | 83 °C |  |  |
| CNC(=O)Oc1cc(C)cc(C)c1 | 99 °C |  | log10 Koc (L/kg): 1.71; log10 vapour pressure (mmHg): -3.44; ready biodegradability: not readily biodegradable; log10 BCF: 0.4 |
| O=C(O)c1c(Cl)ccc(Cl)c1O |  |  | log10 Koc (L/kg): 2.3 |
| c1ccc(C2(N3CCCCC3)CCCCC2)cc1 | 46.5 °C |  |  |
| NCc1cc(O)no1 | 175 °C |  |  |
| C[C@H](O)CCc1ccccc1 |  | 239 °C |  |
| FC(F)(F)C(F)(F)C(F)(F)I | -95 °C | 41.2 °C |  |
| O=C(O)c1ccc(C(=O)O)o1 | 342 °C |  |  |
| c1cnc2c(c1)ccc1cccnc12 | 117 °C |  |  |
| S=c1[nH]c2ccccc2[nH]1 | 298 °C |  | ready biodegradability: not readily biodegradable |
| CC(Cl)=C(Cl)Cl |  | 118 °C |  |
| C/C=C(\C)c1ccccc1 | -23.5 °C |  |  |
| C=C=C(C)CC |  | 70 °C |  |
| COC1CC1 | -119 °C | 44.7 °C |  |
| CC(CCl)OC(C)CCl (stereo not drawn) | -97 °C | 187 °C | log10 Koc (L/kg): 1.67; log10 vapour pressure (mmHg): -0.252; ready biodegradability: not readily biodegradable; log10 BCF: 1.08; log10 biotransformation half-life (days): -1.07 |
| O=c1oc2cc(O)ccc2s1 | 160 °C |  |  |
| COc1ccccc1F | -39 °C | 154 °C |  |
| CCc1ccc(O)c(OC)c1 | -7 °C | 236 °C |  |

| Structure (SMILES) | melting point | boiling point | further results |
| --- | --- | --- | --- |
| Cc1[nH]c(=O)n(C(C)C)c(=O)c1Br | 158 °C |  | log10 Koc (L/kg): 2.11 |
| Cc1ncc(CO)c(C=O)c1O.Cl | 165 °C |  |  |
| COCC#N |  | 119 °C |  |
| ClCCCCCCCCCl |  | 241 °C | ready biodegradability: not readily biodegradable |
| CCC(C)c1cc([N+](=O)[O-])cc([N+](=O)[O-])c1O (stereo not drawn) | 40 °C | 332 °C | log10 Koc (L/kg): 2.7; ready biodegradability: not readily biodegradable; log10 BCF: 1.79 |
| C=C1CC(=O)OC1=O | 69 °C |  |  |
| Clc1ccc2c(c1)Oc1c(Cl)c(Cl)c(Cl)c(Cl)c1O2 | 195 °C |  | log10 Koa: 10.7; log10 vapour pressure (mmHg): -9.18 |
| CCC(=O)O | -20.7 °C | 141 °C | log10 Henry constant (atm·m³/mol): -6.35; log10 vapour pressure (mmHg): 0.548; ready biodegradability: readily biodegradable |
| CC1=C(C)C(=O)c2ccccc2C1=O | 127 °C |  |  |
| CCCCCCCCBr | -55 °C | 200 °C | log10 vapour pressure (mmHg): -0.418 |
| c1ccc(Cc2ccc(-c3ccccc3)cc2)cc1 | 85 °C |  |  |
| O=S(=O)(O)c1ccc2ccccc2c1 | 91 °C |  |  |
| CCCCOC(N)=O | 53 °C |  |  |
| Cc1cc(NS(=O)(=O)c2ccc(N)cc2)nc(C)n1 | 243 °C |  |  |
| O=C(O)c1cccc(S(=O)(=O)O)c1 |  |  | ready biodegradability: not readily biodegradable |
| CCOC(=O)NP(=O)(N1CC1)N1CC1 | 89 °C |  |  |
| CCc1cccc([N+](=O)[O-])c1 | -37.9 °C | 242 °C |  |
| BrCCC1CCCCC1 | -57 °C | 212 °C |  |
| CCN(CC)c1ccc([N+](=O)[O-])cc1 | 77.5 °C |  |  |
| BrC=Cc1ccccc1 | 7 °C |  | ready biodegradability: not readily biodegradable |
| CC(=O)c1ccc(C(F)(F)F)cc1 | 31 °C |  |  |
| CCCC=CC(=O)OCC |  | 174 °C |  |
| O=Cc1cccc2ccccc12 | 33.5 °C | 292 °C |  |
